# ChEMBL document CHEMBL5154881, “Discovery of First-in-Class TAK1-MKK3 Protein-Protein Interaction (PPI) Inhibitor (R)-STU104 for the Treatment of Ulcerative Colitis through Modulating TNF-α Production” (J Med Chem, 2022)
# Active and inactive are the calls of the source. The calls are words filed in the database; no cut-off is given here.
# Experiments:
# [1] = Metabolic stability in human liver microsomes assessed as intrinsic clearance at […] measured upto 60 mins in presence of NADPH by HPLC-MS analysis; assay type: ADME, Microsome; set-up: dose or concentration left out as unconfirmed; conditions: 1 h
# P-gp (human) = test: Apparent permeability in dog MDCK-MDR1 cells transfected with human P-gp; assay type: ADME, cell-based, Canis lupus familiaris
# [2] = Half life in 12 hr starved C57 mouse at 30 mg/kg, po measured for 0.083 to 24 hrs post-dose by LC-MS-MS analysis; assay type: ADME, organism-based; conditions: in vivo, time 0.083-24 hrs
# Mus musculus [3] = test: Anti-ulcerative colitis activity against DSS-induced ulcerative colitis C57BL/6 mouse model assessed as body weight recovery rate at 3 mg/kg, IG via gavage administered for 7 days and measured everyday relative to control; assay type: functional; conditions: time 7 day
# Mus musculus [4] = test: Anti-ulcerative colitis activity against DSS-induced ulcerative colitis C57BL/6 mouse model assessed as body weight recovery rate at 10 mg/kg, IG via gavage administered for 7 days and measured everyday relative to control; assay type: functional; conditions: time 7 day
# Mus musculus [5] = test: Anti-ulcerative colitis activity in DSS-induced C57BL/6 mouse ulcerative colitis model assessed as histopathological score recovery ratio at 3 mg/kg, IG via gavage measured after 7 days by H and E staining method relative to control; assay type: functional; conditions: time 7 day
# Mus musculus [6] = test: Antiinflammatory activity against DSS-induced C57BL/6 mouse model of acute ulcerative colitis assessed as inhibition ratio of IL-1beta protein expression at 1 mg/kg, IG via gavage measured after 7 days by ELISA relative to control; assay type: functional; set-up: scale not given: the % may be the effect or the level left; conditions: time 7 day
# Mus musculus [7] = test: Antiinflammatory activity against DSS-induced C57BL/6 mouse model of acute ulcerative colitis assessed as inhibition ratio of IL-1beta protein expression at 3 mg/kg, IG via gavage measured after 7 days by ELISA relative to control; assay type: functional; set-up: scale not given: the % may be the effect or the level left; conditions: time 7 day
# Mus musculus [8] = test: Antiinflammatory activity against DSS-induced C57BL/6 mouse model of acute ulcerative colitis assessed as inhibition ratio of IL-23 protein expression at 10 mg/kg, IG via gavage measured after 7 days by ELISA relative to control; assay type: functional; set-up: scale not given: the % may be the effect or the level left; conditions: time 7 day
# Mus musculus [9] = test: Antiinflammatory activity against DSS-induced C57BL/6 mouse model of acute ulcerative colitis assessed as inhibition of TNF-alpha mRNA expression in colon tissue administered intragastrically via gavage measured after 7 days by RT-qPCR analysis; assay type: functional, organism-based; conditions: route ig, time 7.0 day, DDE = dose-dependent effect
# Mus musculus [10] = test: Antiinflammatory activity against DSS-induced C57BL/6 mouse model of acute ulcerative colitis assessed as inhibition ratio of IL-6 mRNA expression in colon tissue at 1 mg/kg, IG via gavage measured after 7 days by RT-qPCR analysis relative to control; assay type: functional; set-up: scale not given: the % may be the effect or the level left; conditions: time 7 day
# Mus musculus [11] = test: Antiinflammatory activity against DSS-induced C57BL/6 mouse model of acute ulcerative colitis assessed as inhibition ratio of IL-1beta mRNA expression in colon tissue at 1 mg/kg, IG via gavage measured after 7 days by RT-qPCR analysis relative to control; assay type: functional; set-up: scale not given: the % may be the effect or the level left; conditions: time 7 day
# Mus musculus [12] = test: Antiinflammatory activity against DSS-induced C57BL/6 mouse model of acute ulcerative colitis assessed as inhibition ratio of IL-1beta mRNA expression in colon tissue at 3 mg/kg, IG via gavage measured after 7 days by RT-qPCR analysis relative to control; assay type: functional; set-up: scale not given: the % may be the effect or the level left; conditions: time 7 day
# Mus musculus [13] = test: Anti-ulcerative colitis activity in IL-10-/- C57BL/6 mouse model of ulcerative colitis assessed as colon length recovery ratio at 10 mg/kg, IG via gavage for 8 weeks relative to control; assay type: functional
# Mus musculus [14] = test: Antiinflammatory activity against IL-10-/- C57BL/6 mouse model of ulcerative colitis assessed as inhibition ratio of IL-6 mRNA expression in colon tissue at 3 mg/kg, IG via gavage and measured after 8 weeks by RT-qPCR analysis relative to control; assay type: functional; set-up: scale not given: the % may be the effect or the level left
# Mus musculus [15] = test: Antiinflammatory activity against IL-10-/- C57BL/6 mouse model of ulcerative colitis assessed as inhibition ratio of IL-6 mRNA expression in colon tissue at 10 mg/kg, IG via gavage and measured after 8 weeks by RT-qPCR analysis relative to control; assay type: functional; set-up: scale not given: the % may be the effect or the level left
# Mus musculus [16] = test: Antiinflammatory activity against IL-10-/- C57BL/6 mouse model of ulcerative colitis assessed as inhibition ratio of IL-23 mRNA expression in colon tissue at 10 mg/kg, IG via gavage and measured after 8 weeks by RT-qPCR analysis relative to control; assay type: functional; set-up: scale not given: the % may be the effect or the level left
# RAW264.7 [17] = test: Inhibition of MKK3-p38-elF4E signaling pathway in mouse RAW264.7 cells assessed as reduction in LPS-induced MK2 phosphorylation treated for 1.5 hrs followed by LPS treatment for 1 hr by Western blot analysis; assay type: cell-based; conditions: dose 3.125-12.5 µmol/L, time 2.5 hrs, DDE = dose-dependent effect
# RAW264.7 [18] = test: Inhibition of MKK3-p38-elF4E signaling pathway in mouse RAW264.7 cells assessed as reduction in LPS-induced elF4E phosphorylation treated for 1.5 hrs followed by LPS treatment for 1 hr by Western blot analysis; assay type: cell-based; conditions: dose 3.125-12.5 µmol/L, time 2.5 hrs, DDE = dose-dependent effect
# Mus musculus [19] = test: Inhibition of MKK3-p38 MAPK-elF4E signaling pathway in C57BL/6 mouse model of acute ulcerative colitis assessed as decrease in DSS-induced Mnk1 phosphorylation in colon tissue administered intragastrically via gavage measured after 7 days by Western blot analysis; conditions: dose 1-50 mg/kg, time 7.0 day, DDE = dose-dependent effect
# [20] = target: T1, Dual specificity mitogen-activated protein kinase kinase 3 (Homo sapiens, UniProt P46734); test: Binding affinity to CM5 chip immobilized human MKK3 (20 to 347 residues) expressed in Escherichia coli BL21 (DE3) assessed as dissociation constants, KD by surface plasmon resonance analysis
# T1 sequence (P46734 whole entry): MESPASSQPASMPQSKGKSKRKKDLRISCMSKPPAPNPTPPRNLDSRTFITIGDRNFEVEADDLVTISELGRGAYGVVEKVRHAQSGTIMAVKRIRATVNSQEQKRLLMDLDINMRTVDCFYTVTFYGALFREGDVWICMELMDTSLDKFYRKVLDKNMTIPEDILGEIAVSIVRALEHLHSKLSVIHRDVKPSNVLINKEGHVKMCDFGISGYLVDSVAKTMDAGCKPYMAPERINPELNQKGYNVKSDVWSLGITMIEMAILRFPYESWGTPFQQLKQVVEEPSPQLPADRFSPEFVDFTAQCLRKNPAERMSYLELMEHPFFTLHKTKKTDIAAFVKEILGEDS
# Mus musculus [21] = test: Anti-ulcerative colitis activity in IL-10-/- C57BL/6 mouse ulcerative colitis model assessed as animal survival at 3 to 10 mg/kg, IG via gavage for 8 weeks; assay type: functional, organism-based; conditions: dose 3-10 mg/kg
# Mus musculus [22] = test: Antiinflammatory activity against IL-10-/- C57BL/6 mouse model of acute ulcerative colitis assessed as decrease in serum TNF-alpha levels administered intragastrically via gavage measured after 8 weeks by ELISA; assay type: functional, organism-based; conditions: dose 3-10 mg/kg, route ig, DDE = dose-dependent effect
# Mus musculus [23] = test: Antiinflammatory activity against IL-10-/- C57BL/6 mouse model of acute ulcerative colitis assessed as decrease in serum IL-23 levels administered intragastrically via gavage measured after 8 weeks by ELISA; assay type: functional, organism-based; conditions: dose 3-10 mg/kg, route ig, DDE = dose-dependent effect
# [24] = target: T2, Dual specificity mitogen-activated protein kinase kinase 3 (Homo sapiens) (UniProt P46734); test: Inhibition of human MMK3 at 50 uM using SAPK2a as substrate incubated for 120 mins in presence of [gamma-33P]-ATP by scintillation counting method relative to control
# T2 sequence (whole entry): T1 sequence (P46734 whole entry)
compound,measurement,setting,value
COc1ccc([C@H]2CC(=O)c3cc(OC)cc(OC)c32)cc1,CLH,[1],46 mL/min/g
same,Papp,P-gp (human),23.3 ×10⁻⁶ cm/s
same,half-life,[2],8.67 h
same,Activity,Mus musculus [3],22.7%
same,Activity,Mus musculus [4],52.4%
same,Activity,Mus musculus [5],41.7%
same,Activity,Mus musculus [6],46.9%
same,Activity,Mus musculus [7],60.8%
same,Activity,Mus musculus [8],52.3%
same,Activity,Mus musculus [9],Dde
same,Activity,Mus musculus [10],32.8%
same,Activity,Mus musculus [11],70.1%
same,Activity,Mus musculus [12],87.2%
same,Activity,Mus musculus [13],41.2%
same,Activity,Mus musculus [14],37.1%
same,Activity,Mus musculus [15],48.6%
same,Activity,Mus musculus [16],58.2%
same,inhibition,RAW264.7 [17],Dde
same,inhibition,RAW264.7 [18],Dde
same,inhibition,Mus musculus [19],Dde
same,Kd,[20],71 nM
same,Activity,Mus musculus [21],Active
same,Activity,Mus musculus [22],Dde
same,Activity,Mus musculus [23],Dde
same,inhibition,[24],< 10%
